This experiment has as its system MCF7. Briefly: Cytotoxicity against human MCF7 cells after 48 hrs by MTT assay. In kind it is functional, cell-based. Particulars: MCF7, 48 h.

SMILES strings stand for the structures. Some results are limits rather than exact numbers.

A word on the IC50: it is the concentration needed to halve the response being measured. On to `CCc1cccc(CC)c1N(COC)C(=O)Cn1c(CO)nc2ccccc21`, for which the IC50 amounted to 123 µM.
Compound `Nc1ccc(-c2nc3cc(N)ccc3n2CCO)cc1` returned an IC50 greater than 200 µM.
`CC(C)CC(C(=O)Nc1cccc(O)c1)N1C(=O)c2ccccc2C1=O` (stereo not given) returned an IC50 of 148 µM.
In turn, `Cc1ccc(C)c(C(=O)C2=C(O)C(=O)N(Cc3ccco3)C2c2cccnc2)c1` (stereo not given) gave an IC50 greater than 200 µM.
Regarding `COc1cccc(NC(=O)COc2ccc(C3C(C#N)=C(N)Oc4[nH]nc(C)c43)cc2)c1` (stereo not given), it took 38.5 µM to reach half-maximal inhibition (IC50).
As for `Nc1ccc(Oc2ccc3nc(-c4ccccc4)c(-c4ccc(N)cc4)nc3c2)cc1`, the figure is 65.4 µM; as for `Cc1ccc(/C=N\NC(=O)Cn2c(-c3nonc3N)nc3ccccc32)cc1`, 172 µM; as for `COc1ccc(-n2c(SCC(=O)Nc3cccc(C(C)=O)c3)nnc2-c2ccccc2OC)cc1`, greater than 200 µM.
As to `COc1cc(C2C(C(=O)c3ccc(F)cc3)=C(O)C(=O)N2Cc2cccnc2)ccc1O` (stereo not given), the IC50 was 185 µM.
As for `COc1ccc(-c2cc(C(F)(F)F)n3ncc(C(=O)NC(C)c4ccccc4)c3n2)cc1OC` (stereo not given), the figure is 30.2 µM.
As for `COc1ccc(COC(=O)/C(=C(\C)NC(N)=O)C(C)c2ccccc2OCc2ccccc2)cc1` (stereo not given), the figure is 108 µM; as for `Cc1cc(C(=O)C2=C(O)C(=O)N(CCN3CCOCC3)C2c2ccncc2)ccc1OCC(C)C` (stereo not given), 151 µM; as for `CCOc1cccc(C(=O)C2=C(O)C(=O)N(Cc3ccco3)C2c2cccnc2)c1` (stereo not given), 181 µM.
As for `C[C@]12CC[C@H](O)CC1=CC[C@@H]1[C@@H]2CC[C@]2(C)C(=O)CC[C@@H]12` [PRASTERONE], the IC50 was greater than 200 µM.
In turn, `CC/C(=C(\c1ccccc1)c1ccc(OCCN(C)C)cc1)c1ccccc1` [TAMOXIFEN] gave an IC50 of 15.2 µM.
